For the test, the target named is T1, SHP2 protein (Homo sapiens, UniProt Q06124).
T1 sequence (Q06124 1-593): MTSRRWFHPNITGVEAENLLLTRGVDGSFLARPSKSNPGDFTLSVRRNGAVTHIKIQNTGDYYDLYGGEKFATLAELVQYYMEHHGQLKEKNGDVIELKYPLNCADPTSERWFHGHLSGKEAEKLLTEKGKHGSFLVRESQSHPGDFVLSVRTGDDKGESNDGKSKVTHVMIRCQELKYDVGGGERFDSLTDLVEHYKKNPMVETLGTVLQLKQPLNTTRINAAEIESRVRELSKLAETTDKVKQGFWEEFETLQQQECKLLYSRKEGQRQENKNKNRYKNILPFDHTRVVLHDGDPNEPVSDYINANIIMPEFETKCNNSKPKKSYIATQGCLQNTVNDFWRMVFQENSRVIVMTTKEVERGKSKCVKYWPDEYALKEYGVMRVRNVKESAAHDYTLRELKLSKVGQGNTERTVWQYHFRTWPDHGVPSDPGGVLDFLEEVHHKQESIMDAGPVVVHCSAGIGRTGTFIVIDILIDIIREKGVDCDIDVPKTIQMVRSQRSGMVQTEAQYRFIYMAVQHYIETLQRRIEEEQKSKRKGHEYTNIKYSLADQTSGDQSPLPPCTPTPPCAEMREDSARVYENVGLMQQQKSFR
Put plainly: Measurement of SHP2 protein degradation in NCI-H358 cells (western blotting). It counts as cell-based. The arrangement: endogenous in cells; host or cells: NCI-H358. As to conditions: harvested after 24 hours. An outline of the steps: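 H358 cells in RPMI1640/25 mM HEPES/10% FBS, cultured 24 h, then exposed to compound at final 0.001, 0.01 and 0.1 μM for 24 h against a DMSO control. Lysates were normalised for protein by BCA and probed by western blot for SHP2, with GAPDH as loading control.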

Consider `Cc1ncsc1-c1ccc(CNC(=O)[C@@H]2C[C@@H](O)CN2C(=O)[C@@H](NC(=O)CO)C(C)(C)C)c(OC2CCN(C(=O)C3CCN(c4nccc(Sc5cnc(N6CCC7(CC6)CO[C@@H](C)[C@H]7N)c(CO)n5)c4Cl)CC3)CC2)c1` [Example 89, (2S,4R)—N-(2-((1-(1-(4-((5-((3S,4S)-4-amino-3-methyl-2-oxa-8-azaspiro[4.5]decan-8-yl)-6-(hydroxymethyl)pyrazin-2-yl)thio)-3-chloropyridin-2-yl)piperidine-4-carbonyl)piperidin-4-yl)oxy)-4-(4-methylthiazol-5-yl)benzyl)-4-hydroxy-1-((S)-2-(2-hydroxyacetamido)-3,3-dimethylbutanoyl)pyrrolidine-2-carboxamide], for which the SHP2% degradation by setting is: (0.01 μM) 98.8%; (0.1 μM) 99.9%.

With `CC(=O)N[C@H](C(=O)N1C[C@H](O)C[C@H]1C(=O)NCc1ccc(-c2scnc2C)cc1OC1CCN(C(=O)C2CCN(c3nccc(Sc4cnc(N5CCC(C)(CN)CC5)cn4)c3Cl)CC2)CC1)C(C)C` [Example 90, (2S,4R)-1-(acetyl-L-valyl)-N-(2-((1-(1-(4-((5-(4-(aminomethyl)-4-methylpiperidin-1-yl)pyrazin-2-yl)thio)-3-chloropyridin-2-yl)piperidine-4-carbonyl)piperidin-4-yl)oxy)-4-(4-methylthiazol-5-yl)benzyl)-4-hydroxypyrrolidine-2-carboxamide], the SHP2% degradation (0.01 μM) was determined as 70.5% and the SHP2% degradation (0.1 μM) turned out to be 99.2%.

Turning to `CC(=O)N[C@H](C(=O)N1C[C@H](O)C[C@H]1C(=O)NCc1ccc(-c2scnc2C)cc1OC1CCN(C(=O)C2CCN(c3nccc(Sc4cnc(N5CCC(C)(CN)CC5)cn4)c3Cl)CC2)CC1)C1CC1` [Example 91, (2S,4R)-1-((S)-2-acetamido-2-cyclopropylacetyl)-N-(2-((1-(1-(4-((5-(4-(aminomethyl)-4-methylpiperidin-1-yl)pyrazin-2-yl)thio)-3-chloropyridin-2-yl)piperidine-4-carbonyl)piperidin-4-yl)oxy)-4-(4-methylthiazol-5-yl)benzyl)-4-hydroxypyrrolidine-2-carboxamide], the SHP2% degradation (0.01 μM) stood at 53.2% and the SHP2% degradation (0.1 μM) worked out at 98.5%.

For the compound `Cc1cc(C(C(=O)N2C[C@H](O)C[C@H]2C(=O)NCc2ccc(-c3scnc3C)cc2OC2CCN(C(=O)C3CCN(c4nccc(Sc5cnc(N6CCC(C)(CN)CC6)cn5)c4Cl)CC3)CC2)C(C)C)on1` (stereo partly drawn) [Example 92, (2S,4R)—N-(2-((1-(1-(4-((5-(4-(aminomethyl)-4-methylpiperidin-1-yl)pyrazin-2-yl)thio)-3-chloropyridin-2-yl)piperidine-4-carbonyl)piperidin-4-yl)oxy)-4-(4-methylthiazol-5-yl)benzyl)-4-hydroxy-1-(3-methyl-2-(3-methylisoxazol-5-yl)butanoyl)pyrrolidine-2-carboxamide], the SHP2% degradation worked out at 30.1% (0.01 μM) and 80.2% (0.1 μM).

Regarding `Cc1cc(C(C(=O)N2C[C@H](O)C[C@H]2C(=O)NCc2ccc(-c3scnc3C)cc2OC2CCN(C(=O)C3CCN(c4nccc(Sc5cnc(N6CCC(C)(CN)CC6)cn5)c4Cl)CC3)CC2)C(C)C)on1` (stereo partly drawn) [Example 93, (2S,4R)—N-(2-((1-(1-(4-((5-(4-(aminomethyl)-4-methylpiperidin-1-yl)pyrazin-2-yl)thio)-3-chloropyridin-2-yl)piperidine-4-carbonyl)piperidin-4-yl)oxy)-4-(4-methylthiazol-5-yl)benzyl)-4-hydroxy-1-(3-methyl-2-(3-methylisoxazol-5-yl)butanoyl)pyrrolidine-2-carboxamide], the SHP2% degradation reads like this: (0.01 μM) 99.9%; (0.1 μM) 99.9%.

Source of the values: patent US20260144788A1, “COMPOUND FOR SHP2 PROTEIN DEGRADATION AND MEDICAL USES THEREOF” (UBIX THERAPEUTICS, INC., priority 2022, published 2026).
